Measured values as given in PubChem BioAssay (NCI).
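How tested: cells in 96-well plates exposed to compound for 48 hours at five concentrations. TGI: concentration producing complete growth inhibition.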

How the values were obtained:
Assay in all cases: NCI anticancer screen, dose series, 48 h
[1] = system: SF-295 CNS
[2] = system: IGROV1 ovarian
[3] = system: T-47D breast
[4] = system: NCI-H226 lung
[5] = system: UO-31 renal
[6] = system: SK-MEL-2 melanoma
[7] = system: PC-3 prostate
[8] = system: SK-MEL-5 melanoma
[9] = system: HCT-116 colon
[10] = system: UACC-62 melanoma
[11] = system: RXF 393 renal
[12] = system: LXFL 529 NSCLC
[13] = system: SK-OV-3 ovarian
[14] = system: SF-539 CNS
[15] = system: SW-620 colon
[16] = system: RXF-631 renal
[17] = system: TK-10 renal
[18] = system: RPMI-8226 leukemia
[19] = system: HCT-15 colon
[20] = system: OVCAR-3 ovarian
[21] = system: NCI-H522 lung
[22] = system: OVCAR-5 ovarian
[23] = system: ACHN renal
[24] = system: OVCAR-8 ovarian
[25] = system: SNB-19 CNS
[26] = system: MOLT-4 leukemia
[27] = system: DU-145 prostate
[28] = system: SF-268 CNS
[29] = system: SR leukemia
[30] = system: MDA-MB-435
[31] = system: BT-549 breast
[32] = system: XF 498 CNS
[33] = system: SN12C renal
[34] = system: HL-60(TB) leukemia
[35] = system: KM12 colon
[36] = system: NCI-H460 lung
[37] = system: K-562 leukemia
[38] = system: CCRF-CEM leukemia
[39] = system: HS 578T breast
[40] = system: SNB-78 CNS
[41] = system: NCI-H23 lung
[42] = system: KM20L2 colon
[43] = system: COLO 205 colon
[44] = system: MCF7 breast
[45] = system: U251 CNS
[46] = system: CAKI-1 renal
[47] = system: HOP-92 NSCLC
[48] = system: DMS 114 small cell lung
[49] = system: SK-MEL-28 melanoma
[50] = system: UACC-257 melanoma
[51] = system: OVCAR-4 ovarian
[52] = system: DMS 273 small cell lung
[53] = system: HCC-2998 colon
[54] = system: HT29 colon
[55] = system: SNB-75 CNS
[56] = system: MDA-MB-231 breast
[57] = system: EKVX NSCLC
[58] = system: DLD-1 colon
[59] = system: M14 melanoma
[60] = system: A498 renal
[61] = system: LOX IMVI melanoma
[62] = system: A549 NSCLC
[63] = system: HOP-62 NSCLC
[64] = system: 786-0 renal
[65] = system: MALME-3M melanoma
[66] = system: M19-MEL melanoma
[67] = system: HOP-18 NSCLC

Structure (SMILES): C=C1C(=O)OC2/C=C(\COC(C)=O)CCC(OC(C)=O)C3=CC(OC3=O)C12 (stereo unspecified)
- TGI [1]: 32.6 µM
- TGI [2]: > 56.3 µM
- TGI [3]: 53.4 µM
- TGI [4]: 46.4 µM
- TGI [5]: 35.5 µM
- TGI [6]: 14.7 µM
- TGI [7]: 30.5 µM
- TGI [8]: 26.7 µM
- TGI [9]: 6.85 µM
- TGI [10]: 17.6 µM
- TGI [11]: 3.28 µM
- TGI [12]: 3.56 µM
- TGI [13]: 28.4 µM
- TGI [14]: 16.4 µM
- TGI [15]: 4.47 µM
- TGI [16]: 48 µM
- TGI [17]: 15.4 µM
- TGI [18]: > 100 µM
- TGI [19]: 7.76 µM
- TGI [20]: 12.4 µM
- TGI [21]: 1.14 µM
- TGI [22]: 33.3 µM
- TGI [23]: 9.13 µM
- TGI [24]: 9.6 µM
- TGI [25]: 36.3 µM
- TGI [26]: 5.74 µM
- TGI [27]: > 100 µM
- TGI [28]: 50 µM
- TGI [29]: 16.1 µM
- TGI [30]: 32.9 µM
- TGI [31]: 22.6 µM
- TGI [32]: 5.33 µM
- TGI [33]: 18.9 µM
- TGI [34]: > 20.3 µM
- TGI [35]: 22.1 µM
- TGI [36]: 37.8 µM
- TGI [37]: 7.63 µM
- TGI [38]: 4.63 µM
- TGI [39]: 52.8 µM
- TGI [40]: 9.55 µM
- TGI [41]: 20.7 µM
- TGI [42]: 14.3 µM
- TGI [43]: 6.54 µM
- TGI [44]: 15.5 µM
- TGI [45]: 33.9 µM
- TGI [46]: 10.1 µM
- TGI [47]: 12.5 µM
- TGI [48]: 3.18 µM
- TGI [49]: 11.6 µM
- TGI [50]: 6.65 µM
- TGI [51]: 52 µM
- TGI [52]: 21.7 µM
- TGI [53]: 29.2 µM
- TGI [54]: 15.8 µM
- TGI [55]: 35.6 µM
- TGI [56]: 41.7 µM
- TGI [57]: 34.3 µM
- TGI [58]: 9.92 µM
- TGI [59]: 10 µM
- TGI [60]: 34.1 µM
- TGI [61]: 19 µM
- TGI [62]: 43 µM
- TGI [63]: 38.8 µM
- TGI [64]: 20.9 µM
- TGI [65]: 4.41 µM

Structure (SMILES): c1ccc(C2Nc3ccccc3C3OCCCC23)cc1 (stereo unspecified)
- TGI [1]: 37.4 µM
- TGI [2]: 70.2 µM
- TGI [4]: 68.3 µM
- TGI [66]: > 100 µM
- TGI [5]: > 100 µM
- TGI [6]: 82.2 µM
- TGI [8]: 31.5 µM
- TGI [9]: 87.3 µM
- TGI [10]: 58.5 µM
- TGI [11]: 50.4 µM
- TGI [12]: > 100 µM
- TGI [14]: 31.5 µM
- TGI [15]: > 100 µM
- TGI [16]: > 100 µM
- TGI [18]: 60.2 µM
- TGI [19]: > 100 µM
- TGI [22]: > 100 µM
- TGI [23]: > 100 µM
- TGI [24]: 44.3 µM
- TGI [25]: > 100 µM
- TGI [26]: > 100 µM
- TGI [28]: > 100 µM
- TGI [32]: > 100 µM
- TGI [33]: > 100 µM
- TGI [34]: 51.1 µM
- TGI [35]: > 100 µM
- TGI [37]: > 100 µM
- TGI [38]: 84.8 µM
- TGI [40]: > 100 µM
- TGI [41]: > 100 µM
- TGI [42]: 47.7 µM
- TGI [43]: > 100 µM
- TGI [45]: 38.3 µM
- TGI [46]: 42.3 µM
- TGI [47]: 70.5 µM
- TGI [48]: 62.4 µM
- TGI [50]: > 100 µM
- TGI [51]: > 100 µM
- TGI [52]: 97.1 µM
- TGI [53]: > 100 µM
- TGI [57]: 68.4 µM
- TGI [58]: > 100 µM
- TGI [60]: 71.9 µM
- TGI [61]: 35.3 µM
- TGI [62]: > 100 µM
- TGI [64]: > 100 µM
- TGI [65]: > 100 µM

Structure (SMILES): O=c1c(C(c2ccc(Cl)cc2)c2c(O)c3ccccc3n(-c3ccccc3)c2=O)c(O)c2ccccc2n1-c1ccccc1
- TGI [1]: > 100 µM
- TGI [2]: > 100 µM
- TGI [4]: > 100 µM
- TGI [66]: > 100 µM
- TGI [5]: > 100 µM
- TGI [6]: 86.1 µM
- TGI [8]: > 100 µM
- TGI [9]: > 100 µM
- TGI [10]: > 100 µM
- TGI [11]: > 100 µM
- TGI [12]: > 100 µM
- TGI [13]: > 100 µM
- TGI [14]: > 100 µM
- TGI [15]: > 100 µM
- TGI [16]: > 100 µM
- TGI [17]: > 100 µM
- TGI [18]: 69.4 µM
- TGI [19]: > 100 µM
- TGI [20]: > 100 µM
- TGI [21]: > 100 µM
- TGI [22]: > 100 µM
- TGI [23]: 98.5 µM
- TGI [24]: > 100 µM
- TGI [25]: > 100 µM
- TGI [26]: > 100 µM
- TGI [28]: > 100 µM
- TGI [29]: > 100 µM
- TGI [32]: 69.4 µM
- TGI [33]: > 100 µM
- TGI [35]: > 100 µM
- TGI [37]: > 100 µM
- TGI [38]: > 100 µM
- TGI [40]: > 100 µM
- TGI [41]: > 100 µM
- TGI [42]: > 100 µM
- TGI [43]: > 100 µM
- TGI [45]: > 100 µM
- TGI [46]: > 100 µM
- TGI [47]: > 100 µM
- TGI [48]: > 100 µM
- TGI [49]: > 100 µM
- TGI [51]: > 100 µM
- TGI [52]: > 100 µM
- TGI [53]: > 100 µM
- TGI [57]: 91.1 µM
- TGI [67]: > 100 µM
- TGI [58]: > 100 µM
- TGI [61]: > 100 µM
- TGI [62]: > 100 µM
- TGI [63]: > 100 µM
- TGI [65]: 60.1 µM

Structure (SMILES): O=C1CCC(O)=C1N=Nc1ccccc1
- TGI [1]: > 100 µM
- TGI [2]: > 100 µM
- TGI [4]: > 100 µM
- TGI [66]: > 100 µM
- TGI [5]: > 100 µM
- TGI [6]: > 100 µM
- TGI [8]: > 100 µM
- TGI [9]: > 100 µM
- TGI [10]: 74.1 µM
- TGI [11]: > 100 µM
- TGI [13]: > 100 µM
- TGI [14]: > 100 µM
- TGI [15]: > 100 µM
- TGI [16]: > 100 µM
- TGI [17]: > 100 µM
- TGI [19]: > 100 µM
- TGI [20]: > 100 µM
- TGI [22]: > 100 µM
- TGI [23]: > 100 µM
- TGI [24]: > 100 µM
- TGI [25]: > 100 µM
- TGI [26]: > 100 µM
- TGI [28]: > 100 µM
- TGI [33]: > 100 µM
- TGI [34]: > 100 µM
- TGI [35]: > 100 µM
- TGI [36]: > 100 µM
- TGI [37]: > 100 µM
- TGI [38]: > 100 µM
- TGI [40]: > 100 µM
- TGI [41]: > 100 µM
- TGI [43]: > 100 µM
- TGI [45]: > 100 µM
- TGI [46]: > 100 µM
- TGI [47]: > 100 µM
- TGI [48]: > 100 µM
- TGI [49]: > 100 µM
- TGI [50]: > 100 µM
- TGI [51]: > 100 µM
- TGI [52]: > 100 µM
- TGI [53]: > 100 µM
- TGI [54]: > 100 µM
- TGI [55]: > 100 µM
- TGI [57]: > 100 µM
- TGI [67]: > 100 µM
- TGI [58]: > 100 µM
- TGI [59]: > 100 µM
- TGI [60]: > 100 µM
- TGI [61]: > 100 µM
- TGI [62]: > 100 µM
- TGI [63]: > 100 µM
- TGI [64]: > 100 µM
- TGI [65]: > 100 µM
